Patent US8691753B2 (priority 2009, dated 2014)
Where two headings read alike, the source gives them in different places.

What was measured:
Assay type in all cases: biochemical
MMP-9h = MMP-9h (Homo sapiens (Human), UniProt P14780); assay: Inhibition constant (Ki) on MMP-9h; settings: human MMP-9
Text: (§1) The inhibition constant Ki of these compounds has been determined according to the protocol described by Devel et al, 2006, J. Biol. Chem. (7).
(§2) In this table I and also in table II below, “h” corresponds to human. All of the compounds have therefore been evaluated on human MMPs.

MMP-2h = MMP-2h (Homo sapiens (Human), UniProt P08253); assay: Inhibition constant (Ki) on MMP-2h; settings: human MMP-2
Text: as §1, §2

MMP-14h = MMP-14h (Homo sapiens (Human), UniProt P50281); assay: Inhibition constant (Ki) on MMP-14h; settings: human MMP-14
Text: as §1, §2

MMP-10h = MMP-10h (Homo sapiens (Human), UniProt P09238); assay: Inhibition constant (Ki) on MMP-10h; settings: human MMP-10
MMP-13h = MMP-13h (Homo sapiens (Human), UniProt P45452); assay: Inhibition constant (Ki) on MMP-13h; settings: human MMP-13
Text: as §1, §2

MMP-3h = MMP-3h (Homo sapiens (Human), UniProt P08254); assay: Inhibition constant (Ki) on MMP-3h; settings: human MMP-3
Text: as §1, §2

MMP-8h = MMP-8h (Homo sapiens (Human), UniProt P22894); assay: Inhibition constant (Ki) on MMP-8h; settings: human MMP-8
MMP-12h = MMP-12h (Homo sapiens (Human), UniProt P39900); assay: Inhibition constant (Ki) on MMP-12h; settings: human MMP-12
Chain of MMP-12h (P39900 106-470): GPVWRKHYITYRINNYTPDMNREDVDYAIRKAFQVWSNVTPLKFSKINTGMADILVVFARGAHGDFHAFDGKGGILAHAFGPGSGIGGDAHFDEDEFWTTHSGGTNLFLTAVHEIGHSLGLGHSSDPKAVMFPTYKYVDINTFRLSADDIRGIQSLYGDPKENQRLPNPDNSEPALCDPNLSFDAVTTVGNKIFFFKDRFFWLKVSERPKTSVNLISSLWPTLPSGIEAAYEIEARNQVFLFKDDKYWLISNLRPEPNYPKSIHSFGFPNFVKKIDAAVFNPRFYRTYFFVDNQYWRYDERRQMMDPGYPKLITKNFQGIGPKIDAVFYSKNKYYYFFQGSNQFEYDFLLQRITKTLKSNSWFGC

Chain of MMP-9h (P14780 94-707): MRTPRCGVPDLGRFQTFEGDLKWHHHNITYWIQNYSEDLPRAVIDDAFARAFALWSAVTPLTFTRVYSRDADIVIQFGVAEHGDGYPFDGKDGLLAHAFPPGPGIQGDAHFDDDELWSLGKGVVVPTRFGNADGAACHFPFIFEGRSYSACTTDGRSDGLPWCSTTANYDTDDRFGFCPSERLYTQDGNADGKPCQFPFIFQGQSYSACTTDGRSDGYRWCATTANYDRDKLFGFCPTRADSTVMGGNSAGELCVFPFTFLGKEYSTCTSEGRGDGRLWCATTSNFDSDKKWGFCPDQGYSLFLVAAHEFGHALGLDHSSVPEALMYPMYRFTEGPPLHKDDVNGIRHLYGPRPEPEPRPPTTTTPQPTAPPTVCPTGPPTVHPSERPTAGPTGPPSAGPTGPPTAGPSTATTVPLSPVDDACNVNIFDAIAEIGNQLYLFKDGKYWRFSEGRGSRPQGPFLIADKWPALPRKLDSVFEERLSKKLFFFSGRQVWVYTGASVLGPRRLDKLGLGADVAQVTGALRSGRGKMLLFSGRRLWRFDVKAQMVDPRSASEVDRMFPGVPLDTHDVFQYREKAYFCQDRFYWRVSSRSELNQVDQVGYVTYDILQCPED
Chain of MMP-2h (P08253 110-660): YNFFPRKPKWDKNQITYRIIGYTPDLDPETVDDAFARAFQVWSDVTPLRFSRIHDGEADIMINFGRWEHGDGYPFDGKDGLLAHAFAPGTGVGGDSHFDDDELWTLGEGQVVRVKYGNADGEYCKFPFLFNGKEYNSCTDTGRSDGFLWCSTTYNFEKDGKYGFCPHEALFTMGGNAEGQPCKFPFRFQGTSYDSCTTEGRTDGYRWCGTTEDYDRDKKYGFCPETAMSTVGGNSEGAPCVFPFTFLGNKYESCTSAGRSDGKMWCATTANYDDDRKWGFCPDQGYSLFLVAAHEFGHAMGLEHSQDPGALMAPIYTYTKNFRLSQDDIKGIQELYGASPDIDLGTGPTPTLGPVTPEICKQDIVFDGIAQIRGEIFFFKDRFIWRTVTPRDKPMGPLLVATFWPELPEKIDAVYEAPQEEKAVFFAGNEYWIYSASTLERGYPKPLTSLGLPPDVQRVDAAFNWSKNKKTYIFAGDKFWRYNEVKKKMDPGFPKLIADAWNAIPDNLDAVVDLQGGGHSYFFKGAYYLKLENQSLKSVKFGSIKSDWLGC
Chain of MMP-3h (P08254 100-477): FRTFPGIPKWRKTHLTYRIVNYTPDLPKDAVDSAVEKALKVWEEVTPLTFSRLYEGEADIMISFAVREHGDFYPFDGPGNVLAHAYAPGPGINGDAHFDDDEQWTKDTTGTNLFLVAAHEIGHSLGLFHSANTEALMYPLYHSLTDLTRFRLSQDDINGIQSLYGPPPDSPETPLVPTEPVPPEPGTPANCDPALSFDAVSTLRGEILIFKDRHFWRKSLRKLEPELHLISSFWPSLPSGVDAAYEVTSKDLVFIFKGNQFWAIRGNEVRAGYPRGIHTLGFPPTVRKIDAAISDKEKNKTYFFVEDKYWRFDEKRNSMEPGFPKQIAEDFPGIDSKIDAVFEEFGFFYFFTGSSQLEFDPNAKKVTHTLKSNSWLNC
Chain of MMP-8h (P22894 101-467): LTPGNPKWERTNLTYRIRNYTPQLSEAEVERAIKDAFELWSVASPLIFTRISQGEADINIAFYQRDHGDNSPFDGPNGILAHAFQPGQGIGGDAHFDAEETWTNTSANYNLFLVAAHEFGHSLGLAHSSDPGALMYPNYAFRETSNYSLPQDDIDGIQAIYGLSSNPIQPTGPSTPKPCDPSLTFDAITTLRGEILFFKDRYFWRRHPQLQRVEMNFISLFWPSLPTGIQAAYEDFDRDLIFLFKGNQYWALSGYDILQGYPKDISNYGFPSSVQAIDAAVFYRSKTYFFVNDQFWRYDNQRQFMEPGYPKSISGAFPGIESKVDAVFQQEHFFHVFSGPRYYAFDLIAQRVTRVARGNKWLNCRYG
Chain of MMP-10h (P09238 99-476): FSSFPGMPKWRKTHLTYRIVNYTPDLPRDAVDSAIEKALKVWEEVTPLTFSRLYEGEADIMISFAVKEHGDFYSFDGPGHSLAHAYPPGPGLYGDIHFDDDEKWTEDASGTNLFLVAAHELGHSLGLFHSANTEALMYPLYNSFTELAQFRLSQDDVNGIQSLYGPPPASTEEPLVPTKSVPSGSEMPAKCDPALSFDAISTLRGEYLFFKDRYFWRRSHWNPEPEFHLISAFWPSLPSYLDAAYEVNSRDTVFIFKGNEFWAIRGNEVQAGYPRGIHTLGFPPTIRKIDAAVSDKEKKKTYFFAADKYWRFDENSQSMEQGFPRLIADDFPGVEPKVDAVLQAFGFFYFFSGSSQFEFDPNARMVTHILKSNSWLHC

Compound | Ki (MMP-9h) | Ki (MMP-2h) | Ki (MMP-14h) | Ki (MMP-10h) | Ki (MMP-13h) | Ki (MMP-3h) | Ki (MMP-8h) | Ki (MMP-12h) | Ki (MMP-9h; read-out: Ki MMP-9h) | Ki (MMP-2h; read-out: Ki MMP-2h) | Ki (MMP-14h; read-out: Ki MMP-14h) | Ki (MMP-10h; read-out: Ki MMP-10h) | Ki (MMP-13h; read-out: Ki MMP-13h) | Ki (MMP-3h; read-out: Ki MMP-3h) | Ki (MMP-8h; read-out: Ki MMP-8h) | Ki (MMP-12h; read-out: Ki MMP-12h)
NC(=O)CC[C@H](NC(=O)[C@H](CCC(=O)O)NC(=O)CCc1ccc(-c2ccccc2)cc1)C(N)=O [Compound 42, (S)-4-(3-(biphenyl-4-yl)propanamido)-5-((S)-1,5-diamino-1,5-dioxopentan-2-ylamino)-5-oxopentanoic acid] | > 1000 nM | 448 nM | > 1000 nM | > 1000 nM | 884 nM | > 5000 nM | 285 nM | 48 nM | – | – | – | – | – | – | – | –
O=C(O)CC[C@H](NC(=O)CCc1ccc(-c2ccc(-c3ccccc3)cc2)cc1)C(=O)N1CCC[C@@H](CC(=O)O)C1 [Compound 70, (S)-5-((S)-3-(carboxymethyl)piperidin-1-yl)-4-(3-(4′-phenylbiphenyl-4-yl)propanamido)-5-oxopentanoic acid] | – | – | – | – | – | – | – | – | > 5000 nM | 12 nM | > 1000 nM | 421 nM | 17 nM | 231 nM | 105 nM | 4.7 nM
NC(=O)CC[C@H](NC(=O)CCc1cc(-c2ccc(-c3ccccc3)cc2)no1)C(=O)N[C@@H](CCC(=O)O)C(N)=O [Compound 20, (S)-5-amino-4-((S)-5-amino-2-(3-(3-(biphenyl-4-yl)isoxazol-5-yl)propanamido)-5-oxopentanamido)-5-oxopentanoic acid] | – | – | – | – | – | – | – | – | > 1000 nM | 834 nM | > 10000 nM | > 5000 nM | 234 nM | > 1000 nM | > 1000 nM | 412 nM
NC(=O)CC[C@H](NC(=O)[C@H](CCC(N)=O)NC(=O)CCc1ccc(-c2ccccc2)cc1)C(N)=O [Compound 43, (S)-2-(3-(biphenyl-4-yl)propanamido)-N^1-((S)-1,5-diamino-1,5-dioxopentan-2-yl)pentanediamide] | – | – | – | – | – | – | – | – | > 1000 nM | 319 nM | > 5000 nM | > 5000 nM | 259 nM | > 1000 nM | 657 nM | 306 nM
NCCCC[C@H](NC(=O)CCc1ccc(-c2ccc(-c3ccccc3)cc2)cc1)C(=O)N[C@@H](CCC(=O)O)C(N)=O [Compound 73, (S)-5-amino-4-((S)-6-amino-2-(3-(4′-phenylbiphenyl-4-yl)propanamido)hexanamido)-5-oxopentanoic acid] | – | – | – | – | – | – | – | – | > 10000 nM | 541 nM | > 10000 nM | > 1000 nM | 97 nM | 300 nM | > 1000 nM | 254 nM
NCCCC[C@H](NC(=O)[C@H](CCC(=O)O)NC(=O)CCc1ccc(-c2cccs2)cc1)C(N)=O [Compound 82, (S)-5-((S)-1,6-diamino-1-oxohexan-2-ylamino)-5-oxo-4-(3-(4-(thiophen-2-yl)phenyl)propanamido)pentanoic acid] | – | – | – | – | – | – | – | – | > 1000 nM | 234 nM | > 1000 nM | > 1000 nM | > 1000 nM | > 10000 nM | 73 nM | 44 nM
NC(=O)[C@H](CCC(=O)O)NC(=O)[C@H](CCCC(=O)O)NC(=O)CCc1ccc(-c2cc(-c3ccccc3)cs2)cc1 [Compound 102, (S)-6-((S)-1-amino-4-carboxy-1-oxobutan-2-ylamino)-6-oxo-5-(3-(4-(4-phenylthiophen-2-yl)phenyl)propanamido)hexanoic acid] | > 5000 nM | > 1000 nM | > 10000 nM | > 5000 nM | 635 nM | > 10000 nM | > 5000 nM | 56 nM | – | – | – | – | – | – | – | –
NC(=O)[C@H](CCC(=O)O)NC(=O)[C@H](CCC(=O)O)NC(=O)CCc1ccc(Oc2ccccc2)cc1 [Compound 28, (S)-5-amino-4-((S)-4-carboxy-2-(3-(4-phenoxyphenyl)propanamido)butanamido)-5-oxopentanoic acid] | – | – | – | – | – | – | – | – | > 10000 nM | > 1000 nM | > 1000 nM | > 1000 nM | 309 nM | > 5000 nM | > 1000 nM | 856 nM
NC(=O)[C@@H](CCC(=O)O)NC(=O)[C@@H](CCC(=O)O)NC(=O)CCc1cc(-c2ccc(-c3cccc(Cl)c3)cc2)no1 [Compound 7, (R)-5-amino-4-((R)-4-carboxy-2-(3-(3-(3′-chlorobiphenyl-4-yl)isoxazol-5-yl)propanamido)butanamido)-5-oxopentanoic acid] | – | – | – | – | – | – | – | – | > 5000 nM | 538 nM | > 10000 nM | 111 nM | 114 nM | 897 nM | > 1000 nM | 268 nM
NC(=O)[C@H](CCC(=O)O)NC(=O)[C@@H](CCC(=O)O)NC(=O)CCc1cc(-c2ccc(-c3cccc(Cl)c3)cc2)no1 [Compound 6, (S)-5-amino-4-((R)-4-carboxy-2-(3-(3-(3′-chlorobiphenyl-4-yl)isoxazol-5-yl)propanamido)butanamido)-5-oxopentanoic acid] | – | – | – | – | – | – | – | – | > 5000 nM | 403 nM | > 10000 nM | 489 nM | 235 nM | > 1000 nM | > 5000 nM | 401 nM
NC(=O)[C@H](Cc1c[nH]cn1)NC(=O)[C@H](CCC(=O)O)NC(=O)CCc1ccc(-c2cccs2)cc1 [Compound 86, (S)-5-((S)-1-amino-3-(1H-imidazol-4-yl)-1-oxopropan-2-ylamino)-5-oxo-4-(3-(4-(thiophen-2-yl)phenyl)propanamido)pentanoic acid] | – | – | – | – | – | – | – | – | > 1000 nM | 371 nM | > 1000 nM | > 1000 nM | > 1000 nM | > 10000 nM | 63 nM | 34 nM
NC(=O)[C@H](CCC(=O)O)NC(=O)[C@H](CCC(=O)O)NC(=O)CCc1ccc(-c2cccc(C(=O)O)c2)cc1 [Compound 56, 4′-(3-((S)-1-((S)-1-amino-4-carboxy-1-oxobutan-2-ylamino)-4-carboxy-1-oxobutan-2-ylamino)-3-oxopropyl)biphenyl-3-carboxylic acid] | – | – | – | – | – | – | – | – | > 1000 nM | > 5000 nM | > 10000 nM | > 10000 nM | > 5000 nM | > 10000 nM | > 1000 nM | 91 nM
Cc1nc(-c2ccc(CCC(=O)N[C@@H](CCC(=O)O)C(=O)N[C@@H](CCC(=O)O)C(N)=O)cc2)no1 [Compound 34, (S)-5-amino-4-((S)-4-carboxy-2-(3-(4-(5-methyl-1,2,4-oxadiazol-3-yl)phenyl)propanamido)butanamido)-5-oxopentanoic acid] | – | – | – | – | – | – | – | – | > 5000 nM | > 5000 nM | > 1000 nM | > 1000 nM | > 1000 nM | > 1000 nM | > 1000 nM | 887 nM
NC(=O)[C@H](CCC(=O)O)NC(=O)[C@H](CCC(=O)O)NC(=O)CCc1ccc(-c2cccc(O)c2)cc1 [Compound 54, (S)-5-amino-4-((S)-4-carboxy-2-(3-(3′-hydroxybiphenyl-4-yl)propanamido)butanamido)-5-oxopentanoic acid] | – | – | – | – | – | – | – | – | > 1000 nM | > 10000 nM | > 10000 nM | > 1000 nM | > 10000 nM | > 10000 nM | > 1000 nM | 176 nM
NC(=O)[C@H](CCC(=O)O)NC(=O)[C@H](CCC(=O)O)NC(=O)CCc1ccc(-c2nc3ccccc3s2)cc1 [Compound 39, (S)-5-amino-4-((S)-2-(3-(4-(benzo[d]thiazol-2-yl)phenyl)propanamido)-4-carboxybutanamido)-5-oxopentanoic acid] | 618 nM | 151 nM | 547 nM | 99 nM | 134 nM | 88 nM | 146 nM | 2.2 nM | – | – | – | – | – | – | – | –
NC(=O)[C@H](Cc1ccc(O)cc1)NC(=O)[C@H](CCC(=O)O)NC(=O)CCc1ccc(-c2ccccc2)cc1 [Compound 46, (S)-5-((S)-1-amino-3-(4-hydroxyphenyl)-1-oxopropan-2-ylamino)-4-(3-(biphenyl-4-yl)propanamido)-5-oxopentanoic acid] | – | – | – | – | – | – | – | – | > 1000 nM | 632 nM | > 5000 nM | > 1000 nM | > 1000 nM | > 10000 nM | 270 nM | 52 nM
NC(=O)[C@H](CCC(=O)O)NC(=O)[C@H](CCC(=O)O)NC(=O)CCc1ccc(-n2cccc2)cc1 [Compound 36, (S)-4-(3-(4-(1H-pyrrol-1-yl)phenyl)propanamido)-5-((S)-1-amino-4-carboxy-1-oxobutan-2-ylamino)-5-oxopentanoic acid] | > 1000 nM | > 1000 nM | > 5000 nM | > 1000 nM | > 1000 nM | > 1000 nM | 373 nM | 59 nM | – | – | – | – | – | – | – | –
NC(=O)[C@H](CCC(=O)O)NC(=O)[C@H](Cc1ccc(O)cc1)NC(=O)CCc1ccc(-c2ccc(-c3ccccc3)cc2)cc1 [Compound 75, (S)-5-amino-4-((S)-3-(4-hydroxyphenyl)-2-(3-(4′-phenylbiphenyl-4-yl)propanamido)propanamido)-5-oxopentanoic acid] | – | – | – | – | – | – | – | – | > 10000 nM | > 1000 nM | > 10000 nM | > 1000 nM | 232 nM | 252 nM | > 5000 nM | 122 nM
